In one test the target is T1, c-Myc/Max/Ebox DNA (Homo sapiens, UniProt P01106).
T1 construct: his6 (cleaved yes)
Description: c-Myc/Max/Ebox DNA AlphaScreen Assay. The class given is binding. As to conditions: calculated IC50 class. In outline: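 Compounds were preincubated with free c-Myc (20 nM), biotinylated single-Ebox DNA (10 nM) and Ni acceptor beads before his6-Max (5 nM) and streptavidin donor beads were added. Buffer was 50 mM HEPES pH 8.0, 150 mM NaCl, BSA, Tween20, glycogen and DTT, with DMSO ≤2%. After 2 h incubation, AlphaScreen signal was read at 680 nm excitation and 520–620 nm emission.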

The subject of test [1] is human small lung cancer cell line H2171. The test can be described thus: Cell Viability Assay (ATPlite). The class given is cell-based. As to conditions: read-out: H2171 Activity. In outline:
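H2171 cells were plated at 20,000 cells/mL and dosed immediately by pin transfer with a 10-point dose series in DMSO. After three days at 37° C, ATPlite luminescence served as the viability readout.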
Background: ATP-based viability assays read luminescence as a measure of living cells.

Setting [2] is: Homo sapiens, NCI-H2171, 72 h, Table 3, compounds of FIG. 2, H2171 cells, three days, ATPlite, calculated IC50 class.
The mark [3] stands for this setting: Homo sapiens, NCI-H2171, 72 h, Table 2, compounds of FIG. 1, H2171 cells, three days, ATPlite, calculated IC50 class.

Molecules are shown by their SMILES. Like-named read-outs stand apart in the source and are kept apart here.

T1 sequence (P01106 whole entry): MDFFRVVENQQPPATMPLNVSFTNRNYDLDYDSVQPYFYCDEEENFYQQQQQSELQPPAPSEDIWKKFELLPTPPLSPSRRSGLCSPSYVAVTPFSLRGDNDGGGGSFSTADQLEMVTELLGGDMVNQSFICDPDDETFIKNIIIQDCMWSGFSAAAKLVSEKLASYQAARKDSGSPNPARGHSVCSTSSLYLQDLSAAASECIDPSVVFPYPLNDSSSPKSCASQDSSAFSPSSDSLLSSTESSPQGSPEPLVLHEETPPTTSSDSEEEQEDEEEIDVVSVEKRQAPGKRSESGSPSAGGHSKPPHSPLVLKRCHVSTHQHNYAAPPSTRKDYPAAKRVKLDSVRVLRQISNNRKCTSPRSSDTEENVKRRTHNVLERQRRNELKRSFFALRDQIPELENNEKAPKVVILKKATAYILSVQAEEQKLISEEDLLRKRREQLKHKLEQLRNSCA

Take `CC(=O)Nc1sc2c(c1-c1nc3ccccc3s1)C[C@@H](C)N[C@H]2C` [Compound 218, N-((5R,7S)-3-(benzo[d]thiazol-2-yl)-5,7-dimethyl-4,5,6,7-tetrahydrothieno[2,3-c]pyridin-2-yl)acetamide]: the IC50 was 1 to 10 µM on c-Myc/Max/Ebox DNA (Table 3, compounds of FIG. 2) and less than 0.3 µM in test [1] (Table 3, compounds of FIG. 2, H2171 cells, three days, ATPlite, calculated IC50 class).

As for `CC(=O)Nc1sc2c(c1-c1nc3ccccc3s1)C[C@H](C)N[C@@H]2C` [Compound 219, N-((5S,7R)-3-(benzo[d]thiazol-2-yl)-5,7-dimethyl-4,5,6,7-tetrahydrothieno[2,3-c]pyridin-2-yl)acetamide], the IC50 at c-Myc/Max/Ebox DNA (Table 3, compounds of FIG. 2) was 1 to 10 µM; in test [1] (setting [2]), less than 0.3 µM.

In the case of `CC(=O)Nc1sc2c(c1-c1nc3ccccc3s1)C(F)CN(C(C)C)C2` (stereo not drawn) [Compound 220, N-(3-(benzo[d]thiazol-2-yl)-4-fluoro-6-isopropyl-4,5,6,7-tetrahydrothieno[2,3-c]pyridin-2-yl) acetamide], the IC50 on c-Myc/Max/Ebox DNA (Table 3, compounds of FIG. 2) was 1 to 10 µM; in test [1] (Homo sapiens, NCI-H2171, 72 h), greater than 10 µM.

As for `CC(=O)Nc1sc2c(c1-c1nc3ccccc3s1)CCC(N)C2` (stereo not drawn) [Compound 221, N-(6-amino-3-(benzo[d]thiazol-2-yl)-4,5,6,7-tetrahydrobenzo[b]thiophen-2-yl)acetamide], the IC50 is greater than 10 µM on c-Myc/Max/Ebox DNA (Table 3, compounds of FIG. 2) and greater than 10 µM in test [1] (setting [2]).

In the case of `CC(=O)Nc1sc2c(c1-c1nc3ccccc3s1)CCC(N(C)C)C2` (stereo not drawn) [Compound 223, N-(3-(benzo[d]thiazol-2-yl)-6-(dimethylamino)-4,5,6,7-tetrahydrobenzo[b]thiophen-2-yl)acetamide], the IC50 at c-Myc/Max/Ebox DNA (Table 3, compounds of FIG. 2) is 1 to 10 µM; in test [1] (setting [2]), greater than 10 µM.

Turning to `CC(=O)Nc1sc2c(c1-c1nc3ccc(C)cc3s1)CCNC2` [Compound 224, N-(3-(6-methylbenzo[d]thiazol-2-yl)-4,5,6,7-tetrahydrothieno[2,3-c]pyridin-2-yl)acetamide], the IC50 on c-Myc/Max/Ebox DNA (Table 3, compounds of FIG. 2) was 0.3 to 1 µM; in test [1] (setting [2]) it was greater than 10 µM.

In the case of `CC(=O)Nc1sc2c(c1-c1nc3c(C)cccc3s1)CCNC2` [Compound 225, N-(3-(4-methylbenzo[d]thiazol-2-yl)-4,5,6,7-tetrahydrothieno[2,3-c]pyridin-2-yl)acetamide], the IC50 on c-Myc/Max/Ebox DNA (Table 3, compounds of FIG. 2) is 0.3 to 1 µM; in test [1] (setting [2]), less than 0.3 µM.

For `CC(=O)Nc1sc2c(c1-c1nc3ccccc3s1)CCC(NCc1ccncc1)C2` (stereo not drawn) [Compound 226, N-(3-(benzo[d]thiazol-2-yl)-6-((pyridin-4-ylmethyl)amino)-4,5,6,7-tetrahydrobenzo[b]thiophen-2-yl)acetamide], the IC50 at c-Myc/Max/Ebox DNA (Table 3, compounds of FIG. 2) was greater than 10 µM; in test [1] (setting [2]), less than 0.3 µM.

In the case of `CC(=O)Nc1sc2c(c1-c1nc3ccccc3s1)CCC(NC1CCNCC1)C2` (stereo not drawn) [Compound 227, N-(3-(benzo[d]thiazol-2-yl)-6-(piperidin-4-ylamino)-4,5,6,7-tetrahydrobenzo[b]thiophen-2-yl)acetamide], the IC50 was greater than 10 µM at c-Myc/Max/Ebox DNA (Table 3, compounds of FIG. 2) and less than 0.3 µM in test [1] (setting [2]).

Consider `COC(=O)c1ccc2sc(-c3c(NC(C)=O)sc4c3CCNC4)nc2c1` [Compound 229, Methyl 2-(2-acetamido-4,5,6,7-tetrahydrothieno[2,3-c]pyridin-3-yl)benzo[d]thiazole-5-carboxylate], for which the IC50 on c-Myc/Max/Ebox DNA (Table 3, compounds of FIG. 2) was 0.3 to 1 µM; in test [1] (setting [2]), less than 0.3 µM.

For `CC(=O)Nc1sc2c(c1-c1nc3cc(N(C)C)ccc3s1)CCNC2` [Compound 230, N-(3-(5-(dimethylamino)benzo[d]thiazol-2-yl)-4,5,6,7-tetrahydrothieno[2,3-c]pyridin-2-yl)acetamide], the IC50 on c-Myc/Max/Ebox DNA (Table 3, compounds of FIG. 2) was 1 to 10 µM; in test [1] (setting [2]), greater than 10 µM.

On to `CC(=O)Nc1sc2c(c1-c1nc3ccccc3s1)CCC(NC1CCOCC1)C2` (stereo not drawn) [Compound 231, N-(3-(benzo[d]thiazol-2-yl)-6-((tetrahydro-2H-pyran-4-yl)amino)-4,5,6,7-tetrahydrobenzo[b]thiophen-2-yl)acetamide], for which the IC50 was 1 to 10 µM at c-Myc/Max/Ebox DNA (Table 3, compounds of FIG. 2) and less than 0.3 µM in test [1] (setting [2]).

For `CC(=O)N(C)c1sc2c(c1-c1nc3ccccc3s1)CCNC2` [Compound 232, N-(3-(benzo[d]thiazol-2-yl)-4,5,6,7-tetrahydrothieno[2,3-c]pyridin-2-yl)-N-methylacetamide], the IC50 is greater than 10 µM on c-Myc/Max/Ebox DNA (Table 3, compounds of FIG. 2) and greater than 10 µM in test [1] (setting [2]).

For `CC(=O)Nc1sc2c(c1-c1nc3cc4c(cc3s1)OCO4)CCN(C(C)C)C2` [Compound 236, N-(3-([1,3]Dioxolo[4′,5′:4,5]benzo[1,2-d]thiazol-6-yl)-6-isopropyl-4,5,6,7-tetrahydrothieno[2,3-c]pyridin-2-yl)acetamide], the IC50 on c-Myc/Max/Ebox DNA (Table 3, compounds of FIG. 2) is 0.3 to 1 µM; in test [1] (setting [2]), 0.3 to 1 µM.

With `CC(=O)Nc1sc2c(c1-c1nc3cc4c(cc3s1)OCO4)CCNC2` [Compound 237, N-(3-([1,3]Dioxolo[4′,5′:4,5]benzo[1,2-d]thiazol-6-yl)-4,5,6,7-tetrahydrothieno[2,3-c]pyridin-2-yl)acetamide], the IC50 at c-Myc/Max/Ebox DNA (Table 3, compounds of FIG. 2) is 1 to 10 µM; in test [1] (setting [2]), 0.3 to 1 µM.

As for `CCC(C)NCCC(=O)N(C)c1sc2c(c1-c1nc3ccccc3s1)CCNC2` (stereo not drawn) [Compound 301, N-(3-(benzo[d]thiazol-2-yl)-4,5,6,7-tetrahydrothieno[2,3-c]pyridin-2-yl)-3-(sec-butylamino)-N-methylpropanamide], the IC50 on c-Myc/Max/Ebox DNA (Table 2, compounds of FIG. 1) was 1 to 10 µM; in test [1] (setting [3]), 1 to 10 µM.

For the compound `COCCN(CCOC)CCC(=O)Nc1sc2c(c1-c1nc3ccccc3s1)CCNC2` [Compound 309, N-(3-(benzo[d]thiazol-2-yl)-4,5,6,7-tetrahydrothieno[2,3-c]pyridin-2-yl)-3-(bis(2-methoxyethyl)amino)propanamide], the IC50 was greater than 10 µM on c-Myc/Max/Ebox DNA (Table 2, compounds of FIG. 1) and less than 0.3 µM in test [1] (setting [3]).

On to `O=C(CCNCCO)Nc1sc2c(c1-c1nc3ccccc3s1)CCNC2` [Compound 310, N-(3-(Benzo[d]thiazol-2-yl)-4,5,6,7-tetrahydrothieno[2,3-c]pyridin-2-yl)-3-((2-hydroxyethyl)amino)propanamide], for which the IC50 at c-Myc/Max/Ebox DNA (Table 2, compounds of FIG. 1) is less than 0.3 µM; in test [1] (setting [3]) it was less than 0.3 µM.

Regarding `COCCNCCC(=O)Nc1sc2c(c1-c1nc3cc(C)ccc3s1)CCNC2` [Compound 314, 3-((2-Methoxyethyl)amino)-N-(3-(5-methylbenzo[d]thiazol-2-yl)-4,5,6,7-tetrahydrothieno[2,3-c]pyridin-2-yl)propanamide], the IC50 on c-Myc/Max/Ebox DNA (Table 2, compounds of FIG. 1) was less than 0.3 µM; in test [1] (setting [3]), less than 0.3 µM.

With `COCCNCCC(=O)Nc1sc2c(c1-c1nc3ccccc3s1)CC(C)NC2C` (stereo not drawn) [Compound 315, N-(3-(Benzo[d]thiazol-2-yl)-5,7-dimethyl-4,5,6,7-tetrahydrothieno[2,3-c]pyridin-2-yl)-3-((2-methoxyethyl)amino)propanamide], the IC50 is 0.3 to 1 µM on c-Myc/Max/Ebox DNA (Table 2, compounds of FIG. 1) and less than 0.3 µM in test [1] (Table 2, compounds of FIG. 1, H2171 cells, three days, ATPlite, calculated IC50 class).

For the compound `COCCNCCC(=O)Nc1sc2c(c1-c1nc3ccc(F)cc3s1)CCNC2` [Compound 318, N-(3-(6-Fluorobenzo[d]thiazol-2-yl)-4,5,6,7-tetrahydrothieno[2,3-c]pyridin-2-yl)-3-((2-methoxyethyl)amino)propanamide], the IC50 on c-Myc/Max/Ebox DNA (Table 2, compounds of FIG. 1) was 0.3 to 1 µM; in test [1] (setting [3]), less than 0.3 µM.

Regarding `CCC(C)N(CCC(=O)Nc1sc2c(c1-c1nc3ccccc3s1)CCN(CCNC(=O)C(F)(F)F)C2)C(C)=O` (stereo not drawn) [Compound 319, N-(3-(Benzo[d]thiazol-2-yl)-6-(2-(2,2,2-trifluoroacetamido)ethyl)-4,5,6,7-tetrahydrothieno[2,3-c]pyridin-2-yl)-3-(N-(sec-butyl)acetamido)propanamide], the IC50 is greater than 10 µM at c-Myc/Max/Ebox DNA (Table 2, compounds of FIG. 1) and 0.3 to 1 µM in test [1] (setting [3]).

For the compound `CC(C)NCCC(=O)Nc1sc2c(c1-c1nc3cc(C(=O)O)ccc3s1)CCNC2` [Compound 320, 2-(2-(3-(Isopropylamino)propanamido)-4,5,6,7-tetrahydrothieno[2,3-c]pyridin-3-yl)benzo[d]thiazole-5-carboxylic acid], the IC50 at c-Myc/Max/Ebox DNA (Table 2, compounds of FIG. 1) is 0.3 to 1 µM; in test [1] (setting [3]), less than 0.3 µM.

`C=Cc1ccc2sc(-c3c(NC(=O)CCNC(C)C)sc4c3CCNC4)nc2c1` [Compound 321, 3-(Isopropylamino)-N-(3-(5-vinylbenzo[d]thiazol-2-yl)-4,5,6,7-tetrahydrothieno[2,3-c]pyridin-2-yl)propanamide]: the IC50 is 0.3 to 1 µM at c-Myc/Max/Ebox DNA (Table 2, compounds of FIG. 1) and less than 0.3 µM in test [1] (setting [3]).

Consider `CC(C)NCCC(=O)Nc1sc2c(c1-c1nc3cc(C(=O)N(C)C)ccc3s1)CCNC2` [Compound 322, 2-(2-(3-(Isopropylamino)propanamido)-4,5,6,7-tetrahydrothieno[2,3-c]pyridin-3-yl)-N,N-dimethylbenzo[d]thiazole-5-carboxamide], for which the IC50 at c-Myc/Max/Ebox DNA (Table 2, compounds of FIG. 1) was 0.3 to 1 µM; in test [1] (setting [3]), less than 0.3 µM.

As to `COCCNC(=O)c1ccc2sc(-c3c(NC(=O)CCNC(C)C)sc4c3CCNC4)nc2c1` [Compound 323, 2-(2-(3-(Isopropylamino)propanamido)-4,5,6,7-tetrahydrothieno[2,3-c]pyridin-3-yl)-N-(2-methoxyethyl)benzo[d]thiazole-5-carboxamide], the IC50 on c-Myc/Max/Ebox DNA (Table 2, compounds of FIG. 1) was less than 0.3 µM; in test [1] (setting [3]), less than 0.3 µM.

For the compound `CC(C)NCCC(=O)Nc1sc2c(c1-c1nc3cc(C(=O)N4CCN(C)CC4)ccc3s1)CCNC2` [Compound 324, 3-(Isopropylamino)-N-(3-(5-(4-methylpiperazine-1-carbonyl)benzo[d]thiazol-2-yl)-4,5,6,7-tetrahydrothieno[2,3-c]pyridin-2-yl)propanamide], the IC50 at c-Myc/Max/Ebox DNA (Table 2, compounds of FIG. 1) was 0.3 to 1 µM; in test [1] (setting [3]), 1 to 10 µM.

The values are drawn from patent publication US10787444B2, “Compounds for the modulation of myc activity” (Syros Pharmaceuticals, Inc., priority 2015, dated 2020).
